Earlier results in patent US20110045089A1, “VITAMIN K3 DERIVATIVE / NSA FORMULATION” (priority 2009, published 2011).

Assays:
[1] = for Total vitamin retention %: 1 × 2 × 3 × 4 (product of the four stress factors); for Vitamin retention, stress factor 1: vitamin premix without choline chloride: 2 months; for Vitamin retention, stress factor 4: petfood storage time: 8 months; for Vitamin retention, stress factor 2: extrusion temperature: 105° C.; for Vitamin retention, stress factor 3: drying/enrobing: 180° C.
[2] = 80° C., high humidity
[3] = premix containing choline chloride, after 6 months of storage (FIG. 2)

| SMILES | Total vitamin retention % [1] [%] | Vitamin retention, stress factor 1: vitamin premix without choline chloride [1] [%] | Vitamin retention, stress factor 4: petfood storage time [1] [%] | Vitamin retention, stress factor 2: extrusion temperature [1] [%] | Vitamin retention, stress factor 3: drying/enrobing [1] [%] | Fraction decomposed during pelleting process [2] [%] | Original amount of K3 remaining in premix [3] [%] |
| --- | --- | --- | --- | --- | --- | --- | --- |
| NC(=O)c1cccnc1 [Niacinamide, nicotinamide] | 58 | 100 | 79 | 87 | 84 |  |  |
| CC1(S(=O)(=O)[O-])CC(=O)c2ccccc2C1=O.[Na+] (stereo not shown) [MSB, Menadione Sodium Bisulphite] | 5 | 98 | 27 | 50 | 37 |  |  |
| CC1(S(=O)(=O)O)CC(=O)c2ccccc2C1=O.NC(=O)c1cccnc1 (stereo not shown) [MNB, Nicotinamide Menadione Bisulfite] | 25 | 100 | 47 | 70 | 76 | 50 | ≤ 70 |
| CC1(S(=O)(=O)O)CC(=O)c2ccccc2C1=O.Cc1cc(C)nc(O)n1 (stereo not shown) [MPB, 2-hydroxy-4,6-dimethyl-pyrimidinium Menadione Bisulfite] | 19 | 100 | 42 | 65 | 70 |  |  |
